Assay [1] deals with Enterococcus faecium ATCC 700221 (VRE; vancomycin-resistant). Nature of the assay: Broth microdilution MIC. The class given is cell-based. The following applies: for MIC: Enterococcus faecium, read-out: Measured MIC; for Measured MIC: Table 2, polC WT, strain ATCC 700221. As for the experimental part:
(§1) Minimal inhibitory concentrations (MICs) were determined by WuXi Apptec, on behalf of Acurx Pharmaceuticals, Inc., for the Gram-positive pathogens: Enterococcus faecium ATCC 700221 (VRE; vancomycin-resistant), Enterococcus faecalis ATCC 29212, Staphylococcus aureus NRS384 (MRSA; methicillin-resistant), Staphylococcus aureus ATCC 29213 (MSSA; methicillin-sensitive), and Streptococcus pneumoniae ATCC 49619 (PRSP; penicillin-resistant). As a control, Gram-negative Escherichia coli ATCC 25922 was included. All strains were obtained from ATCC with the exception of Staphylococcus aureus NRS384, which was obtained from NARSA (Network on Antimicrobial Resistance in Staphylococcus aureus, now part of BEI resources). Bacteria were cultured according to the manuals provided by the suppliers and stored in 25% glycerol (final concentration) at –80 °C.
(§2) Bacterial strains were streaked out onto MHA plates (Mueller-Hinton II Agar; BD-211438) and incubated at 37 °C for 20 h except for S. pneumoniae and Enterococci, which were streaked on blood agar (Huankai-24070). S. pneumoniae was incubated in 5% CO2. Single colonies were suspended in 5 mL sterile saline, the turbidity was adjusted to 0.20 (Siemens MicroScan turbidity metre; equal to ~1.0 × 10^8 colony forming units (CFU)/mL) and then diluted 200x in MHIIB (Mueller-Hinton II […] (BD-211438)) medium. The MHIIB media was supplemented with 5% Lysed Horse Blood (Shanghai YuanMu Biological Technology Co. Ltd. YM-U161) for S. pneumoniae.
(§3) ACX compounds were dissolved in pure DMSO (Sigma 276855) to a concentration of 20 mg/mL. From this, twofold serial dilutions (from […]) in DMSO were transferred to a 96-well source-plate (Axygen-wipp02280) with pure DMSO as a control. 2 µL from the source plate was then transferred into 96-well culture plates (Costar 3788) and inoculated with 198 µL of the bacterial suspension so that each well contained ~5.0 × 10^5 CFU/mL bacteria, 1% DMSO and serially diluted compounds at 0 µg/mL and 0.0625-64 µg/mL in 100 µl medium. For NRS384, which was tested in a separate experiment, 99 µL of bacterial suspension was added to 1 µL of compound. The plates were incubated in ambient atmosphere at 37 °C for 20 h.
Background: In broth dilution the organism is exposed to a series of concentrations in liquid medium.

For assay [2], the system named is Streptococcus pneumoniae ATCC 49619 (PRSP; penicillin-resistant). Nature of the assay: Broth microdilution MIC. The class given is cell-based. The following applies: read-out: Measured MIC. As for the experimental part: as §1, §2, §3
Assay [3] has as its system Enterococcus faecalis ATCC 29212. Nature of the assay: Broth microdilution MIC. Format: cell-based. As for the experimental part:
as §1, §2, §3

Assay [4] concerns Staphylococcus aureus ATCC 29213 (MSSA; methicillin-sensitive). The experiment in a line: Broth microdilution MIC. Format: cell-based. The following applies: read-out: Measured MIC. As for the experimental part: as §1, §2, §3
Assay [5] has as its system Escherichia coli ATCC 25922. The experiment in a line: Broth microdilution MIC. The class given is cell-based. As for the experimental part: as §1, §2, §3
Assay [6] concerns E. faecium strains with polC mutations (A1281T, F1276I, F1276L, F1276S). The experiment in a line: Cross-resistance MIC of reduced susceptible E. faecium strains. The class given is cell-based, Enterococcus faecium. The following applies: for MIC: Enterococcus faecium. As for the experimental part: Strains with reduced susceptibility to ACX compounds were generated by WuXi Apptec on behalf of Acurx Pharmaceuticals, Inc., using E. faecium ATCC 700221 as parental strain.
Agar MICs for the wild-type strain were determined on Blood agar (Huankai). Compounds and linezolid were dissolved in 100% DMSO and vancomycin in ultrapure water. Strains were inoculated onto agar plates, incubated at 37 °C for 20-24 h after which colonies were suspended in sterile 0.9% saline at different bacterial concentrations. 5 μL of bacterial suspensions was individually spotted on agar plates supplemented with compounds at different concentrations, resulting in final concentrations of 10^–1, 10^–2, 10^–3, 10^–4, 10^–5, 10^–6, and 10^–7 per spot. After incubation for 20-24 h, bacterial growth was assessed by visual inspection.
For frequency of resistance (FOR) studies, colonies from the agar plate were suspended into sterile 0.9% saline to get 10^8-10^9 CFU bacterial cells per mL. […] The suspensions were also serially diluted with 0.9% saline and spotted onto agar to determine the actual inoculum. All agar plates were incubated at 37 °C for 48 h. FOR was defined as colony number on each compound-containing plate per CFU number of actual inoculum. Resistant colonies were subcultured on the corresponding compound plates to confirm that colonies were resistant and stable.
Confirmed resistant colonies were used for cross-resistance studies, as described above.
Paired-end short read sequencing data from selected mutants (generated by BGISEQ) as well as the corresponding wild-type parental strain was analysed against the reference genomes for E. faecium strain ATCC 700221 (https://genomes.atcc.org/genomes/f9d13a716ccb4f78) using Geneious R10.2.6 (Biomatters Ltd). Variants were called using the Find Variants/SNPs function with a minimum coverage of 10 and a minimum frequency of 0.8. […] This identified the following mutations in the polC gene: D1103Y in strain Efa4; F1276L in strains Efa030, Efa038, and Efa039; F1276I in strains Efa1 and Efa037; F1276S in strain Efa3; A1281T in strains Efa036, Efa040 and Efa041. Strains Efa036, Efa039, and Efa040 each had only one polymorphism identified.

Assay [7] has as its system Staphylococcus aureus NRS384 (MRSA; methicillin-resistant). The experiment in a line: Broth microdilution MIC. The class given is cell-based. The following applies: read-out: Measured MIC. As for the experimental part:
as §1, §2, §3

[8] abbreviates: read-out: Measured MIC, polC A1281T, strain Efa036, selected on 2 mg/L ACX-641.
The mark [9] stands for this setting: read-out: Measured MIC, polC A1281T, strain Efa040, selected on 4 mg/L ACX-671.
Where [10] appears, read: read-out: Measured MIC, polC F1276I, strain Efa037, selected on 4 mg/L ACX-641.
The mark [11] stands for this setting: read-out: Measured MIC, polC F1276L, strain Efa030, selected on 16 mg/L ACX-728.
Setting [12] is: read-out: Measured MIC, polC F1276S, strain Efa3, selected on 16 mg/L ACX-728.
The mark [13] stands for this setting: ATCC29212, read-out: Measured MIC.
Where [14] appears, read: ATCC25922, read-out: Measured MIC.

Converted amounts (≈) assume the structure as drawn. Read-outs that look alike come from different tables or passages of the source.

Here are results for 3 compounds from publication PMC12592400, “A unique inhibitor conformation selectively targets the DNA polymerase PolC of Gram-positive priority pathogens” (Nature Communications, 2025).

As for `CN(C)c1cc(CNCC(C)(C)C)c(O)c2c1C[C@H]1C[C@H]3[C@H](N(C)C)C(O)=C(C(N)=O)C(=O)[C@@]3(O)C(O)=C1C2=O` [OMC, omadacycline], the MIC in assay [1] (E. faecium VRE ATCC 700221, Table 1, single replicate) is 0.12 µg/mL (≈ 0.216 µM); in assay [2] (S. pneumoniae PRSP ATCC 49619, Table 1, single replicate), at most 0.06 µg/mL; in assay [3] (ATCC29212, E. faecalis ATCC 29212, Table 1, single replicate, read-out: Measured MIC) it was 0.25 µg/mL (≈ 0.449 µM); in assay [4] (S. aureus ATCC 29213, Table 1, single replicate), 0.5 µg/mL (≈ 0.898 µM); in assay [5] (ATCC25922, E. coli ATCC 25922, Table 1, single replicate, read-out: Measured MIC), 1 µg/mL (≈ 1.8 µM); in assay [6] (setting [8]), 0.12 µg/mL. The MIC in assay [6] (setting [9]) was 0.12 µg/mL; in assay [6] (setting [10]), at most 0.06 µg/mL; in assay [6] (setting [11]), 0.12 µg/mL; in assay [6] (setting [12]), at most 0.06 µg/mL. The “Measured MIC” value in assay [1] stood at 0.12 mg/L.
Consider `CCCCCCCCCC(=O)N[C@@H](Cc1c[nH]c2ccccc12)C(=O)N[C@H](CC(N)=O)C(=O)N[C@@H](CC(=O)O)C(=O)N[C@@H]1C(=O)NCC(=O)N[C@@H](CCCN)C(=O)N[C@@H](CC(=O)O)C(=O)N[C@H](C)C(=O)N[C@@H](CC(=O)O)C(=O)NCC(=O)N[C@H](CO)C(=O)N[C@@H]([C@H](C)CC(=O)O)C(=O)N[C@@H](CC(=O)c2ccccc2N)C(=O)O[C@@H]1C` [DAP, daptomycin], for which the MIC in assay [1] was 4 µg/mL (≈ 2.47 µM); in assay [2] it was 0.5 µg/mL (≈ 0.309 µM); in assay [3] (setting [13]), 8 µg/mL (≈ 4.94 µM); in assay [4], 1 µg/mL (≈ 0.617 µM); in assay [5] (setting [14]) it was over 64 µg/mL; in assay [6] (setting [8]), 4 µg/mL. The MIC in assay [6] (setting [9]) was found to be 4 µg/mL; in assay [6] (setting [10]), 2 µg/mL; in assay [6] (setting [11]) it was 2 µg/mL; in assay [6] (setting [12]), 2 µg/mL. In addition, the “Measured MIC” value in assay [1] was determined as 4 mg/L.
`CN[C@H](CC(C)C)C(=O)N[C@H]1C(=O)N[C@@H](CC(N)=O)C(=O)N[C@H]2C(=O)N[C@H]3C(=O)N[C@H](C(=O)N[C@H](C(=O)O)c4cc(O)cc(O)c4-c4cc3ccc4O)[C@H](O)c3ccc(c(Cl)c3)Oc3cc2cc(c3O[C@@H]2O[C@H](CO)[C@@H](O)[C@H](O)[C@H]2O[C@H]2C[C@](C)(N)[C@H](O)[C@H](C)O2)Oc2ccc(cc2Cl)[C@H]1O` [VAN, vancomycin]: the MIC is over 64 µg/mL in assay [1]; 0.25 µg/mL (≈ 0.173 µM) in assay [2]; 1 µg/mL (≈ 0.69 µM) in assay [7]; 4 µg/mL (≈ 2.76 µM) in assay [3] (setting [13]); 1 µg/mL (≈ 0.69 µM) in assay [4]; over 64 µg/mL in assay [5] (setting [14]). Further, the MIC in assay [6] (read-out: Measured MIC) is over 64 µg/mL. Further, the “Measured MIC” value in assay [1] is over 64 mg/L; in assay [6] (polC A1281T, strain Efa036, selected on 2 mg/L ACX-641), over 64 mg/L; in assay [6] (polC F1276I, strain Efa037, selected on 4 mg/L ACX-641) it was over 64 mg/L; in assay [6] (polC F1276L, strain Efa030, selected on 16 mg/L ACX-728), over 64 mg/L; in assay [6] (polC F1276S, strain Efa3, selected on 16 mg/L ACX-728), over 64 mg/L.
